The target in assay [1] is T1, C. albicans H^+-ATPase (Candida albicans, UniProt P28877).
T1 construct: endogenous in cells; host or cells: C. albicans culture grown in YPD; microsomal membrane preparation
Nature of the assay: Colorimetric ATPase assay (ATP hydrolysis), C. albicans membranes. The following applies: pH 7, n = 3. In kind it is biochemical. The source says:
(§1) To investigate the H^+-ATPase inhibitory effect of the compounds we isolated plasma membranes containing H^+-ATPase from S. cerevisiae and C. albicans cells.[15] Plasma membranes isolated from pig kidney as well as endoplasmic reticulum membranes from rabbit hind leg muscle were used to counter-screen compounds for activity against mammalian Na^+,K^+-ATPase and Ca^2+-ATPase, respectively. Prior to their use, fungal plasma membrane batches were validated by determining the maximum ATP hydrolysis activity, the pH optimum of the ATPase activity, and the sensitivity to inhibition by orthovanadate. ATPase activity was determined by a colorimetric assay that measures the amount of inorganic phosphate liberated over time, as described in Kjellerup et al., 2017.[15] Table 2, Table 3, Table 4 list the IC50 values obtained by measuring the concentration dependence of the ATPase activity for the fifteen carbazole compounds with each of the four membrane preparations.
(§2) Pma1-containing plasma membranes were prepared from S. cerevisiae RS72 yeast cells that had been transformed with the full-length cDNA of the S. cerevisiae plasma membrane H^+-ATPase isoform PMA1 under control of the PMA1 promoter, using the same procedure as described in Kongstad et al., 2014^1. For the preparation of C. albicans membranes, a 100 ml overnight culture grown in YPD (10 g/L yeast extract (BD, Sparks, MD), 20 g/L Bacto peptone (BD), 20 g/L D-(+)-glucose) was transferred to 1 L YPD and grown for a further 7 h at RT with agitation (150 rpm), followed by cell harvesting and subsequent membrane preparation using the same procedure as described in Kongstad et al., 2014^1. […] Rabbit sarcoplasmic reticulum membranes containing Sarco/Endoplasmic Reticulum Ca^2+ ATPase (SERCA) were kindly provided by Dr. Claus E. Olesen and Dr. Jesper V. Møller, Aarhus University and prepared as described in Andersen et al., 1985^2. Pig kidney Na^+,K^+-ATPase was kindly provided by Dr. Natalya Fedosova, Aarhus University and prepared as described in Klodos et al., 2002^3.
(§3) The compound libraries were purchased from Enamine Ltd, Ukraine and Chembridge Corp, USA. ATPase activity was determined by measuring the amount of liberated phosphate from ATP hydrolysis. […] Reactions were initiated by the addition of Na-ATP to a final concentration of 2.5 mM (Pma1 and Na^+,K^+-ATPase) or 5 mM (SERCA), followed by 30 minutes incubation at 30 °C. The amount of liberated phosphate was determined colorimetrically after addition of STOP solution (mixture of L-ascorbic acid, ammonium heptamolybdate tetrahydrate, and HCl to give final concentrations of 65 mM, 2.2 mM, and 189 mM, respectively) with 5 minutes incubation at room temperature (RT) followed by addition of arsenite solution (mixture of NaAsO2, sodium citrate dihydrate, and acetic acid to give final concentrations of 3.1 mM, 28 mM, and 141 mM, respectively). Absorption was measured at 860 nm after an additional 30 minutes incubation at RT.

Assay [2] deals with Aspergillus fumigatus ATCC 13073. Put plainly: Mold growth inhibition. In kind it is cell-based. To be noted: ATCC13073; Aspergillus fumigatus ATCC 13073, n=3; read-out: Fungal Growth Inhibition MIC. The source says:
We subsequently assessed the carbazole series for antifungal activity, as described in Kjellerup et al., 2017.[15] Table 2, Table 3, Table 4, Table 5 list the minimum inhibitory concentrations (MIC) and the minimum fungicidal concentrations (MFC) of the fifteen compounds tested against the yeasts Saccharomyces cerevisiae, Candida albicans, C. krusei, and two isolates of C. glabrata (a wild-type strain ATCC 90030 and a clinical azole-resistant isolate Cg003 with increased efflux pump expression[19]), and the molds Aspergillus fumigatus and A. flavus. MIC was defined as the lowest concentration inhibiting visual growth of the microorganism in RPMI-1640 media. […] However, in several cases antifungal activity against molds was minimal, Table 5.
Compound hits from the library screening were evaluated against baker yeast S. cerevisiae and C. albicans (ATCC 90028). The minimum inhibitory concentration (MIC) was defined as the lowest concentration inhibiting visual growth of the microorganism and this was determined in triplicate. Standard errors were typically less than 5%. MICs for synthesized compounds were determined on the following fungal isolates: Saccharomyces cerevisiae (ATCC 9763), Candida albicans (SC5314), Candida krusei (ATCC 6258), Candida glabrata (ATCC 90030), Aspergillus flavus (ATCC MYA-1005) and Aspergillus fumigatus (ATCC 13073), which were purchased from American Type Culture Collection, and C. glabrata strain Cg003, which was kindly provided by Julius Subik, Comenius University in Bratislava, Slovak Republic. Cg003 is a clinical isolate, characterized to be resistant to fluconazole and itraconazole due to overexpression of the multidrug resistance efflux pumps Cdr1p and Cdr2p^5. The fungal growth assay was performed as described in Kjellerup et al., 2017^6.

The target in assay [3] is T2, Mammalian Na^+,K^+-ATPase (Sus scrofa, UniProt P05024).
T2 construct: from tissue; host or cells: pig kidney plasma membranes (gift, Aarhus University; prepared per Klodos et al., 2002)
Put plainly: Colorimetric ATPase assay, pig kidney membranes. In kind it is biochemical. The following applies: for IC50: pH 7, n = 3, read-out: ATP hydrolysis IC50 Mammalian Na^+,K^+-ATPase; for selectivity among the four ATPases: lower IC50 value on Na^+,K^+-ATPase.
From the text: as §1, §2, §3

The subject of assay [4] is Staphylococcus aureus ATCC 29213. Put plainly: Bacterial growth inhibition assay. To be noted: ATCC29213; Staphylococcus aureus ATCC 29213, n=3. The format is cell-based. The source says: (§4) To further support the notion that the carbazole H^+-ATPase inhibitors were specific inhibitors of fungal growth, we tested the effect of all fifteen compounds on the growth of two bacterial species; the gram-positive Staphylococcus aureus and the gram-negative Escherichia coli. […] Compound 16 and 17 were interesting as they were potent inhibitors of the ATP hydrolysis in the enzymatic assay and potent H^+-ATPase inhibitors in whole fungal cell assay (iATP and extracellular acidification).
(§5) The bacterial strains used in this study were purchased from DSMZ, Germany. Bacteria cells were grown in Mueller-Hinton broth (MHB) to mid-exponential phase and freeze stocks were prepared at 1-2 × 10^8 CFU/mL in MHB and 20% glycerol and stored at -20 °C. These stocks were used to inoculate bacterial growth assays at a final concentration of 5 × 10^5 CFU/mL in MHB together with 1.5 % DMSO or compound in a 96-well plate and incubated for 16-29 h at 35 °C, whereafter growth was determined by reading at OD600. Kanamycin and ampicillin were used as positive control compounds. Experiments were performed at least twice and standard errors were typically less than 5 %.

The test system of assay [5] is Escherichia coli ATCC 25922. Put plainly: Bacterial growth inhibition assay. The following applies: ATCC25922; Escherichia coli ATCC 25922, n=3. The format is cell-based.
From the text: as §4, §5

Assay [6] deals with T3, S. cerevisiae H^+-ATPase (Saccharomyces cerevisiae, UniProt P05030).
T3 construct: transformed with the full-length cDNA of the S. cerevisiae plasma membrane H^+-ATPase isoform PMA1; made in house; host or cells: S. cerevisiae RS72
T3 sequence (P05030 whole entry, canonical isoform): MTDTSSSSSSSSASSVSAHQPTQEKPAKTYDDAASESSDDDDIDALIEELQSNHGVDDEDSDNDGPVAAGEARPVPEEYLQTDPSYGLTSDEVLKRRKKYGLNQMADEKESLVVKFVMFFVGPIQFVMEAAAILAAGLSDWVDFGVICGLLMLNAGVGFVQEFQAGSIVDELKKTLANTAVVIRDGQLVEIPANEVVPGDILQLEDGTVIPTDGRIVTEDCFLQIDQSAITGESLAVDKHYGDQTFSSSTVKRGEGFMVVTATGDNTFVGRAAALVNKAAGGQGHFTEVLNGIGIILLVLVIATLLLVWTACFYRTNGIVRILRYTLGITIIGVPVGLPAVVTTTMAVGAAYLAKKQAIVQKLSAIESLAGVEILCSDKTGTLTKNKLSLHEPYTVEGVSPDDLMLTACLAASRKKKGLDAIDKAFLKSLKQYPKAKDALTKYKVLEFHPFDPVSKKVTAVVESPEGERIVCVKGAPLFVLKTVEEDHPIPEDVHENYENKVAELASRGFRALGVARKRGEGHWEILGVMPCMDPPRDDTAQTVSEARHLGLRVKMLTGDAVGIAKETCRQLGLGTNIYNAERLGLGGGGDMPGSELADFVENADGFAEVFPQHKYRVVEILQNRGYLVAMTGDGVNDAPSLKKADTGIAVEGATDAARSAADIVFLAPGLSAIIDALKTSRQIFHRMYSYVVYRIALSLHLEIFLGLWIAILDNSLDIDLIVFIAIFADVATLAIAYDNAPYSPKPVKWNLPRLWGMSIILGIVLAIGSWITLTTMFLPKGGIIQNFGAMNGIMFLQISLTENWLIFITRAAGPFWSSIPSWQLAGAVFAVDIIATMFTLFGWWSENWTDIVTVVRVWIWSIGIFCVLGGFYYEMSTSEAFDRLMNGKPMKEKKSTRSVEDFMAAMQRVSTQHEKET
Nature of the assay: Colorimetric ATPase assay (ATP hydrolysis), S. cerevisiae plasma membranes. In kind it is biochemical. The following applies: for IC50: pH 7, n = 3.
From the text: as §1, §2, §3

Values after ≈ are worked out from the molar mass of the structure shown. Bounds are passed on as bounds.

As usually defined, the IC50 is the midpoint of a concentration-inhibition curve. For orientation: MIC means the smallest concentration in the dilution series that meets the test's criterion for growth inhibition.

T1 sequence (P28877 whole entry): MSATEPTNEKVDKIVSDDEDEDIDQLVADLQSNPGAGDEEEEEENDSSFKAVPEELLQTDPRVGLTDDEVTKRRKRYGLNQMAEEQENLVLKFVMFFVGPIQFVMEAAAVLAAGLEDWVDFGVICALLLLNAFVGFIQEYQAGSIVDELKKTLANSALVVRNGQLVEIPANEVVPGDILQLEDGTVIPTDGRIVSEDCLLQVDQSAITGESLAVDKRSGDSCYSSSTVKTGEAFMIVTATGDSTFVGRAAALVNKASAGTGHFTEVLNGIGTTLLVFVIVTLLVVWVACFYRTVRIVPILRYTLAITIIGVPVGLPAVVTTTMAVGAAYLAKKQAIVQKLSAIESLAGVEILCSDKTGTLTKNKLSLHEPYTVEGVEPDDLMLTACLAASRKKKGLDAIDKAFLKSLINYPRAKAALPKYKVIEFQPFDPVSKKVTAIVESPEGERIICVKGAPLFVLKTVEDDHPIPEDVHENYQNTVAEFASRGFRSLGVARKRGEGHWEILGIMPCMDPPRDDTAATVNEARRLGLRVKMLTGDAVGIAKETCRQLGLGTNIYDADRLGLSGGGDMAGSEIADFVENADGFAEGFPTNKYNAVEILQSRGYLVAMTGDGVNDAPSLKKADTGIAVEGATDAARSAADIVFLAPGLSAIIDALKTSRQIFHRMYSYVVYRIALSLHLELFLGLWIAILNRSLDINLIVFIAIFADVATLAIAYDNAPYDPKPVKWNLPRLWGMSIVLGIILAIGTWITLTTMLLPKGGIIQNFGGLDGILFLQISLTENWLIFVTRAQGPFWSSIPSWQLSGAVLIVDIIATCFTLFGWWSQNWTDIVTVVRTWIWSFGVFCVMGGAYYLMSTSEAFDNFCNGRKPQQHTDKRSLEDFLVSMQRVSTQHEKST

Take `OC(Cn1ccnc1)Cn1c2ccc(Cl)cc2c2cc(Cl)ccc21` (stereo not drawn) [Compound 5, 1-(3,6-dichloro-9H-carbazol-9-yl)-3-(1H-imidazol-1-yl)propan-2-ol]: the IC50 in assay [1] was 19.3 ± 2.6 µM; in assay [3], 20.4 ± 2.3 µM; in assay [6] it was 23 ± 12.3 µM. For the same compound, the MIC in assay [2] was greater than 75 µM; in assay [4] it was 7.5 µM (≈ 2.7 µg/mL); in assay [5] it was greater than 75 µM.

For `OC(Cn1cncn1)Cn1c2ccc(Cl)cc2c2cc(Cl)ccc21` (stereo not drawn) [Compound 6, 1-(3,6-dichloro-9H-carbazol-9-yl)-3-(1H-1,2,4-triazol-1-yl)propan-2-ol], the values for the IC50 in assay [1], in assay [3] and in assay [6] were 4 ± 1.2 µM, 5.2 ± 0.3 µM and 7.4 ± 1.6 µM, respectively. The MIC in assay [2] is greater than 75 µM; in assay [4], 41 µM (≈ 14.8 µg/mL); in assay [5] it was greater than 75 µM.

Take `OC(CN1CCOCC1)Cn1c2ccc(Cl)cc2c2cc(Cl)ccc21` (stereo not drawn) [Compound 7, 1-(3,6-dichloro-9H-carbazol-9-yl)-3-morpholinopropan-2-ol]: the IC50 is 2.6 ± 0.4 µM in assay [1], 6 ± 1.3 µM in assay [3] and 6.9 ± 1.3 µM in assay [6]. The results for the MIC in assay [2], in assay [4] and in assay [5] were greater than 75 µM, 41 µM (≈ 15.6 µg/mL) and greater than 75 µM, respectively.

For the compound `CN1CCN(CC(O)Cn2c3ccc(Cl)cc3c3cc(Cl)ccc32)CC1` (stereo not drawn) [Compound 8, 1-(3,6-dichloro-9H-carbazol-9-yl)-3-(4-methylpiperazin-1-yl)propan-2-ol], the IC50 in assay [1] stood at 26.4 ± 2.5 µM; in assay [3] it was 9.7 ± 3.3 µM; in assay [6], 52.7 ± 10.6 µM. For the same compound, the MIC in assay [2] turned out to be 75 µM (≈ 29.4 µg/mL); in assay [4], 64 µM (≈ 25.1 µg/mL); in assay [5], 75 µM (≈ 29.4 µg/mL).

With `O=C(O)C1CCN(CC(O)Cn2c3ccc(Cl)cc3c3cc(Cl)ccc32)CC1` (stereo not drawn) [Compound 9, 1-(3-(3,6-dichloro-9H-carbazol-9-yl)-2-hydroxypropyl)piperidine-4-carboxylic acid], the half-inhibitory concentration (IC50) in assay [1] came to 105 ± 13.9 µM; in assay [3] it was 4 ± 0.7 µM; in assay [6] it was 107 ± 11.8 µM. Besides, the MIC in assay [2] was greater than 75 µM; in assay [4], 75 µM (≈ 31.6 µg/mL); in assay [5], greater than 75 µM. Further, the “selectivity among the four ATPases” value in assay [3] is listed as “pronounced selectivity towards Na^+,K^+-ATPase”.

On to `CCC(C)NCC(O)Cn1c2ccc(Cl)cc2c2cc(Cl)ccc21` (stereo not drawn) [Compound 10, 1-(sec-butylamino)-3-(3,6-dichloro-9H-carbazol-9-yl)propan-2-ol], for which the half-maximal inhibitory concentration (IC50) turned out to be 1.1 ± 0.2 µM in assay [1], 1 ± 0.2 µM in assay [3] and 2 ± 0.2 µM in assay [6]. In addition, the values for the minimum inhibitory concentration (MIC) in assay [2], in assay [4] and in assay [5] were 3.7 µM (≈ 1.35 µg/mL), 2.9 µM (≈ 1.06 µg/mL) and 20 µM (≈ 7.31 µg/mL), respectively. In addition, the “fold more potent H^+-ATPase inhibition than the parent compounds 1–4” value in assay [6] (IC50 ratio) is listed as “ca. 9 fold”.

With `COc1ccc2c(c1)c1cc(OC)ccc1n2CC(O)CN1CCN(C)CC1` (stereo not drawn) [Compound 11, 1-(3,6-dimethoxy-9H-carbazol-9-yl)-3-(4-methylpiperazin-1-yl)propan-2-ol], the IC50 in assay [1], in assay [3] and in assay [6] was greater than 167 µM each time. Also, the MIC in assay [2], in assay [4] and in assay [5] was greater than 75 µM throughout.

For the compound `CN1CCN(CC(O)Cn2c3ccc(C#N)cc3c3cc(C#N)ccc32)CC1` (stereo not drawn) [Compound 12, 9-(2-hydroxy-3-(4-methylpiperazin-1-yl)propyl)-9H-carbazole-3,6-dicarbonitrile], the IC50 in assay [1] was 144 ± 14.7 µM; in assay [3] it was 10.5 ± 1.4 µM; in assay [6], greater than 167 µM. Besides, the MIC in assay [2], in assay [4] and in assay [5] was greater than 75 µM in each case. Besides, the “selectivity among the four ATPases” value in assay [3] is recorded as “pronounced selectivity towards Na^+,K^+-ATPase”.

For `CN1CCN(CC(O)Cn2c3ccc(O)cc3c3cc(O)ccc32)CC1` (stereo not drawn) [Compound 13, 9-(2-hydroxy-3-(4-methylpiperazin-1-yl)propyl)-9H-carbazole-3,6-diol], the IC50 in assay [1], in assay [3] and in assay [6] was greater than 167 µM in each case. Also, the MIC in assay [2], in assay [4] and in assay [5] was greater than 75 µM throughout.

With `CN(C)CCCn1c2ccc(Cl)cc2c2cc(Cl)ccc21` [Compound 14, 3-(3,6-dichloro-9H-carbazol-9-yl)-N,N-dimethyl-propan-1-amine], the IC50 in assay [1] amounted to 23.3 ± 5.3 µM; in assay [3], 2.1 ± 0.5 µM; in assay [6] it was 36.2 ± 3.1 µM. For the same compound, the figures for the MIC in assay [2], in assay [4] and in assay [5] were greater than 75 µM, 7.5 µM (≈ 2.41 µg/mL) and 75 µM (≈ 24.1 µg/mL), respectively.

As for `CN(C)CCCCn1c2ccc(Cl)cc2c2cc(Cl)ccc21` [Compound 15], the IC50 worked out at 31.1 ± 4.8 µM in assay [1], 5.1 ± 0.8 µM in assay [3] and 51.8 ± 0.5 µM in assay [6]. Besides, the MIC amounted to 24 µM (≈ 8.05 µg/mL) in assay [2], 24 µM (≈ 8.05 µg/mL) in assay [4] and 75 µM (≈ 25.1 µg/mL) in assay [5].

As to `CN1CCN(CCCn2c3ccc(Cl)cc3c3cc(Cl)ccc32)CC1` [Compound 16, 3,6-dichloro-9-(3-(4-methylpiperazin-1-yl)propyl)-9H-carbazole], the IC50 in assay [1] is 7.1 ± 0.5 µM; in assay [3], 2.5 ± 0.6 µM; in assay [6] it was 20 ± 1 µM. Further, the values for the MIC in assay [2], in assay [4] and in assay [5] were 41 µM (≈ 15.4 µg/mL), 24 µM (≈ 9.03 µg/mL) and 75 µM (≈ 28.2 µg/mL), respectively.

Take `Clc1ccc2c(c1)c1cc(Cl)ccc1n2CCCN1CCOCC1` [Compound 18, 4-(3-(3,6-dichloro-9H-carbazol-9-yl)propyl)morpholine]: the IC50 turned out to be 5.9 ± 1.7 µM in assay [1], 7.7 ± 3.1 µM in assay [3] and 11.1 ± 3.8 µM in assay [6]. Also, the MIC in assay [2], in assay [4] and in assay [5] was greater than 75 µM in each case.
